From patent US12157746B2, “Tetrahydro-1H-pyrazino[2,1-a]isoindolylquinoline compounds for the treatment of autoimmune disease” (F. HOFFMANN-LA ROCHE AG, priority 2018, dated 2024) come the findings set out here.

One data set deals with T1, human TLR8 (Homo sapiens, UniProt Q9NR97).
T1 sequence (Q9NR97 27-1041): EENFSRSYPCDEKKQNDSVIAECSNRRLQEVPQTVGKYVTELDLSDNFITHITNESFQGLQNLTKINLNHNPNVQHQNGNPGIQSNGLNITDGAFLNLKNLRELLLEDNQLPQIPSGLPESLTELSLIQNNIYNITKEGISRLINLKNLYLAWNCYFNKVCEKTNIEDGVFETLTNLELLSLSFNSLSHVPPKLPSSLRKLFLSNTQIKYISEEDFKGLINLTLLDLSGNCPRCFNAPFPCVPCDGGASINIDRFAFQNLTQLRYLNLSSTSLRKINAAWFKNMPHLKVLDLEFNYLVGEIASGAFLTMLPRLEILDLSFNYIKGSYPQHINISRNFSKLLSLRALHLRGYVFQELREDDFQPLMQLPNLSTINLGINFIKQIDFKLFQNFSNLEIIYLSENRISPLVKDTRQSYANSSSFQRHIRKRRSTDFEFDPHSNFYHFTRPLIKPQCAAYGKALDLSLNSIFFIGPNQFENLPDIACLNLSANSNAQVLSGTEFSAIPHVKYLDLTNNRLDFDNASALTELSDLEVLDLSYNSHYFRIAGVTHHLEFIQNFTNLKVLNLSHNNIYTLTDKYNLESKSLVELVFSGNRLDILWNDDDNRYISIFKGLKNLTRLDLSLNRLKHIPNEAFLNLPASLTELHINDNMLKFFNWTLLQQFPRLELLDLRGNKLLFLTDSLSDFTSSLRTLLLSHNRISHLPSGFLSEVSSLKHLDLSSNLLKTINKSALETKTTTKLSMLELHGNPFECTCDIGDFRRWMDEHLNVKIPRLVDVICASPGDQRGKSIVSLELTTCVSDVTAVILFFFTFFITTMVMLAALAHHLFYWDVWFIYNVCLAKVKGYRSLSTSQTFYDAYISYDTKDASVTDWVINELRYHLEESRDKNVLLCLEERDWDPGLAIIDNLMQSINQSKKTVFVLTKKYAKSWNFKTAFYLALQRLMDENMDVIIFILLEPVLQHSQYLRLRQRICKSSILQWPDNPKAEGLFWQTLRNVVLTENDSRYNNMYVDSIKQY
As to the kind of experiment: HEK293-Blue-hTLR-8 cells assay. Format: cell-based. The settings on record: HEK293-Blue-hTLR8 cells, R848 stimulation, 20 hrs, SEAP reporter; read-out: HEK/hTLR8 IC50. An excerpt:
HEK293-Blue-hTLR-8 Cells Assay:
A stable HEK293-Blue-hTLR-8 cell line was purchased from InvivoGen (Cat. #: hkb-htlr8, San Diego, California, USA). These cells were originally designed for studying the stimulation of human TLR8 by monitoring the activation of NF-κB. A SEAP (secreted embryonic alkaline phosphatase) reporter gene was placed under the control of the IFN-β minimal promoter fused to five NF-κB and AP-1-binding sites. The SEAP was induced by activating NF-κB and AP-1 via stimulating HEK-Blue hTLR8 cells with TLR8 ligands. Therefore the reporter expression was declined by TLR8 antagonist under the stimulation of a ligand, such as R848, for incubation of 20 hrs. The cell culture supernatant SEAP reporter activity was determined using QUANTI-Blue™kit (Cat. #: rep-qb1, Invivogen, San Diego, Ca, USA) at a wavelength of 640 nm, a detection medium that turns purple or blue in the presence of alkaline phosphatase.
HEK293-Blue-hTLR8 cells were incubated at a density of 250,000-450,000 cells/mL in a volume of 170 μL in a 96-well plate in Dulbecco's Modified Eagle's medium (DMEM) containing 4.5 g/L glucose, 50 U/mL penicillin, […], […], 2 mM L-glutamine, 10% (v/v) heat-inactivated fetal bovine serum with addition of 20 μL test compound 1n a serial dilution in the presence of final DMSO at 1% and 10 μL of 60 uM R848 in above DMEM, perform incubation under 37° C. in a CO2 incubator for 20 hrs. Then 20 μL of the supernatant from each well was incubated with 180 μL Quanti-blue substrate solution at 37° C. for 2 hrs and the absorbance was read at 620-655 nm using a spectrophotometer. The signaling pathway that TLR8 activation leads to downstream NF-κB activation has been widely accepted, and therefore similar reporter assay was modified for evaluating TLR8 antagonist.

A short description of data set [1]: Human microsomal stability assay. Format: in vitro ADME. The following applies: human liver microsomes 0.5 mg/mL, 37° C., pH 7.4, NADPH regenerating system, 0-30 minutes. As for the experimental part: Human Microsomal Stability Assay
Human liver microsomes (Cat. NO.: 452117, Corning, USA) were preincubated with test compound for 10 minutes at 37° C. in 100 mM potassium phosphate buffer, pH 7.4. The reactions were initiated by adding NADPH regenerating system. The final incubation mixtures contained […] test compound, 0.5 mg/mL liver microsomal protein, 1 mM MgCl2, 1 mM NADP, 1 unit/mL isocitric dehydrogenase and 6 mM isocitric acid in 100 mM potassium phosphate buffer, pH 7.4. After incubation times of 0, 3, 6, 9, 15 and 30 minutes at 37° C., 300 μL of cold ACN (including internal standard) was added to 100 μL incubation mixture to terminate the reaction. Following precipitation and centrifugation, 100 μL supernatant will be taken out and added 300 uL water. The amount of compound remaining in the samples was determined by LC-MS/MS. Controls of no NADPH regenerating system at zero and 30 minutes were also prepared and analyzed. The results were categorized as: low (<7.0 mLJmin/kg), medium (7.0-16.2 mL/min/kg) and high (16.2-23.2 mLJmin/kg).
(In general: Liver microsomes are vesicles of endoplasmic reticulum, rich in cytochrome P450 enzymes.)

Molecules are shown by their SMILES.

Turning to `C[C@@H]1CN(c2ccc(C#N)c3ncccc23)CC2c3ccc(N4C[C@H](N)[C@@H](O)C4)cc3CN21` (relative stereo) [Example 21, 5-[(4R,10bS)-8-[trans-3-amino-4-hydroxy-pyrrolidin-1-yl]-4-methyl-3,4,6,10b-tetrahydro-1H-pyrazino[2,1-a]isoindol-2-yl]quinoline-8-carbonitrile], on human TLR8, the IC50 is < 3.2 nM. In data set [1], the “CL (h)” value is recorded as 6.2 mL/min/kg.

Turning to `C[C@@H]1CN(c2ccc(C#N)c3ncccc23)C[C@@H]2c3ccc(N4CCOC[C@H](N)C4)cc3CN12` [Example 54A, 5-[(4R,10bS)-8-[(6R)-6-amino-1,4-oxazepan-4-yl]-4-methyl-3,4,6,10b-tetrahydro-1H-pyrazino[2,1-a]isoindol-2-yl]quinoline-8-carbonitrile], the IC50 at human TLR8 is < 3.2 nM. In data set [1], the “CL (h)” value amounted to 7.5 mL/min/kg.

With `COC1CN(c2ccc3c(c2)CN2C3CN(c3ccc(C#N)c4ncccc34)C[C@H]2C)CC1N` (single isomer, unassigned) [Example 16B], the IC50 on human TLR8 is < 3.2 nM. Moreover, the “CL (h)” value in data set [1] worked out at 8.1 mL/min/kg.

In the case of `C[C@@H]1CN(c2ccc(C#N)c3ncccc23)C[C@@H]2c3ccc(N4CC5(CNC5)C4)cc3CN12` [Example 36, 5-[(4R,10bS)-8-(2,6-diazaspiro[3.3]heptan-2-yl)-4-methyl-3,4,6,10b-tetrahydro-1H-pyrazino[2,1-a]isoindol-2-yl]quinoline-8-carbonitrile], on human TLR8, the IC50 was < 3.2 nM. Moreover, in data set [1], the “CL (h)” value stood at 6.2 mL/min/kg.

Turning to `C[C@@H]1CN(c2ccc(C#N)c3ncccc23)C[C@@H]2c3ccc(N4C[C@@H](N)[C@H](O)C4)cc3CN12` (single isomer, unassigned) [Example 40B], on human TLR8, the IC50 came to 0.9 nM. Besides, the “CL (h)” value in data set [1] was 7.6 mL/min/kg.

Take `C[C@@H]1CN(c2ccc(C#N)c3ncccc23)C[C@@H]2c3ccc(N4CCNC[C@H](O)C4)cc3CN12` [Example 53A, 5-[(4R,10bS)-8-[(6S)-6-hydroxy-1,4-diazepan-1-yl]-4-methyl-3,4,6,10b-tetrahydro-1H-pyrazino[2,1-a]isoindol-2-yl]quinoline-8-carbonitrile]: the IC50 on human TLR8 was < 3.2 nM. Moreover, in data set [1], the “CL (h)” value was determined as 8.6 mL/min/kg.

Take `C[C@@H]1CN(c2ccc(C#N)c3ncccc23)C[C@@H]2c3ccc(N[C@H]4CNC[C@H]4F)cc3CN12` [Example 30, 5-[(4R,10bS)-8-[[(3S,4R)-4-fluoropyrrolidin-3-yl]amino]-4-methyl-3,4,6,10b-tetrahydro-1H-pyrazino[2,1-a]isoindol-2-yl]quinoline-8-carbonitrile]: the IC50 at human TLR8 is < 3.2 nM. The “CL (h)” value in data set [1] is reported as 8.8 mL/min/kg.

With `C[C@@H]1CN(c2ccc(C#N)n3nccc23)C[C@@H]2c3ccc(N4CC[C@@H](N)C4)cc3CN12` [Example 96, 4-[(4R,10bS)-8-[(3R)-3-aminopyrrolidin-1-yl]-4-methyl-3,4,6,10b-tetrahydro-1H-pyrazino[2,1-a]isoindol-2-yl]pyrazolo[1,5-a]pyridine-7-carbonitrile], at human TLR8, the IC50 was 4 nM. Moreover, in data set [1], the “CL (h)” value came out at 6.2 mL/min/kg.

Consider `CO[C@@H]1CN(c2ccc3c(c2)CN2[C@H](C)CN(c4ccc(C#N)n5nccc45)C[C@H]32)CC[C@H]1N` [Example 104, 4-[(4R,10bS)-8-[(3R,4R)-4-amino-3-methoxy-1-piperidyl]-4-methyl-3,4,6,10b-tetrahydro-1H-pyrazino[2,1-a]isoindol-2-yl]pyrazolo[1,5-a]pyridine-7-carbonitrile], for which the IC50 at human TLR8 turned out to be 3.2 nM. The “CL (h)” value in data set [1] turned out to be 7.0 mL/min/kg.

Turning to `C[C@@H]1CN(c2ccc(C#N)c3ncccc23)C[C@@H]2c3ccc(NC4CNC4)cc3CN12` [Example 28, 5-[(4R,10S)-8-(azetidin-3-ylamino)-4-methyl-3,4,6,10b-tetrahydro-1H-pyrazino[2,1-a]isoindol-2-yl]quinoline-8-carbonitrile], at human TLR8, the IC50 is < 3.2 nM. Moreover, the “CL (h)” value in data set [1] came to 8.7 mL/min/kg.

Take `C[C@@H]1CN(c2ccc(C#N)c3ncccc23)C[C@@H]2c3ccc(N4CC5(CN(C)C5)C4)cc3CN12` [Example 38, 5-[(4R,10bS)-4-methyl-8-(6-methyl-2,6-diazaspiro[3.3]heptan-2-yl)-3,4,6,10b-tetrahydro-1H-pyrazino[2,1-a]isoindol-2-yl]quinoline-8-carbonitrile]: at human TLR8, the IC50 is < 0.3 nM. In addition, in data set [1], the “CL (h)” value is on record as 6.2 mL/min/kg.

As for `CO[C@@H]1CNC[C@H]1Nc1ccc2c(c1)CN1[C@H](C)CN(c3ccc(C#N)c4ncccc34)C[C@H]21` [Example 34, 5-[(4R,10bS)-8-[[(3R,4R)-4-methoxypyrrolidin-3-yl]amino]-4-methyl-3,4,6,10b-tetrahydro-1H-pyrazino[2,1-a]isoindol-2-yl]quinoline-8-carbonitrile], the IC50 at human TLR8 was < 3.2 nM.

In the case of `CO[C@H]1CN(c2ccc3c(c2)CN2[C@H](C)CN(c4ccc(C#N)c5ncccc45)C[C@H]32)C[C@@H]1N` (relative stereo) [Example 16, 5-[(4R,10bS)-8-[trans-3-amino-4-methoxy-pyrrolidin-1-yl]-4-methyl-3,4,6,10b-tetrahydro-1H-pyrazino[2,1-a]isoindol-2-yl]quinoline-8-carbonitrile], the IC50 at human TLR8 is < 3.2 nM.

For `CO[C@@H]1CN(c2ccc3c(c2)CN2[C@H](C)CN(c4ccc(C#N)n5nccc45)C[C@H]32)CC[C@@H]1N` [Example 105, 4-[(4R,10bS)-8-[(3R,4S)-4-amino-3-methoxy-1-piperidyl]-4-methyl-3,4,6,10b-tetrahydro-1H-pyrazino[2,1-a]isoindol-2-yl]pyrazolo[1,5-a]pyridine-7-carbonitrile], the IC50 at human TLR8 was 4.1 nM.

As to `COC12CNCC1CN(c1ccc3c(c1)CN1[C@H](C)CN(c4ccc(C#N)c5ncccc45)C[C@H]31)C2` (stereo partly drawn) [Example 41, 5-[(4R,10bS)-8-(3a-methoxy-1,2,3,4,6,6a-hexahydropyrrolo[3,4-c]pyrrol-5-yl)-4-methyl-3,4,6,10b-tetrahydro-1H-pyrazino[2,1-a]isoindol-2-yl]quinoline-8-carbonitrile], the IC50 at human TLR8 was < 3.2 nM.

On to `C[C@@H]1CN(c2ccc(C#N)c3ncccc23)C[C@@H]2c3ccc(N4C[C@H](N)[C@@H](F)C4)cc3CN12` [Example 49, 5-[(4R,10bS)-8-[(3S,4S)-3-amino-4-fluoro-pyrrolidin-1-yl]-4-methyl-3,4,6,10b-tetrahydro-1H-pyrazino[2,1-a]isoindol-2-yl]quinoline-8-carbonitrile], for which the IC50 at human TLR8 worked out at 0.6 nM.
